This note sets out measurements from patent publication US20070167412A1, “HALOCOMBSTATINS AND METHODS OF SYNTHESIS THEREOF” (ARIZONA BOARD OF REGENTS, priority 2003, published 2007).

What is called GI50 is the concentration at which growth is held to half of that of the control.

Converted amounts (≈) assume the structure as drawn.

Assay type in all cases: cell-based
In one assay the test system is Breast MCF-7. The experiment in a line: human cancer cell growth inhibition, sulforhodamine B assay. To be noted: Homo sapiens, MCF7; Table I; 48 hours; read-out: Human cancer cell line inhibition (GI50) Breast adn MCF-7. An outline of the steps:
(§1)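 Read-out: sulforhodamine B staining quantified by automated microplate reader. Protocol follows the National Cancer Institute standard, with fixation in trichloracetic acid at the end of a 48-hour incubation.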

The test system of a further assay is CNS SF268. Described as above. To be noted: Homo sapiens, SF-268; Table I; 48 hours; read-out: Human cancer cell line inhibition (GI50) CNS SF268. The method, boiled down:
as §1

The next assay concerns Colon KM20L2. The assay is described as above. To be noted: Homo sapiens, KM-20L2; Table I; 48 hours; read-out: Human cancer cell line inhibition (GI50) Colon KM20L2. An outline of the steps:
as §1

For the next assay, the system named is Lung-NSC NCI-H460. The assay is described as above. To be noted: Homo sapiens, NCI-H460; Table I; 48 hours; read-out: Human cancer cell line inhibition (GI50) Lung-NSC NCI-H460. The method, boiled down: as §1
In another assay the test system is Pancreas BXPC-3. Described as above. To be noted: Homo sapiens, BXPC-3; Table I; 48 hours; read-out: Human cancer cell line inhibition (GI50) Pancreas-a BXPC-3. An outline of the steps:
as §1

In the next assay the test system is Prostate DU-145. The assay is described as above. To be noted: Homo sapiens, DU-145; Table I; 48 hours; read-out: Human cancer cell line inhibition (GI50) Prostate DU-145. An outline of the steps: as §1
The subject of assay [1] is human umbilical vein endothelial cells (HUVEC). As to the kind of experiment: HUVEC growth inhibition, sulforhodamine B assay. To be noted: HUVEC. The procedure: In vitro Matrigel antiangiogenesis assays were implemented according to the Developmental Therapeutics Program NCI/NIH protocols known to one of skill in the art. Matrigel, a basement membrane matrix, was obtained from BD Biosciences. Growth inhibition and cord formation assays were Conducted using human umbilical vein endothelial cells obtained from GlycoTeCh. HUVEC cells were grown in EGM-2 medium.
The standard sulforhodamine B assay (see Cancer Cell Line Procedures above) was used to evaluate results using HUVEC cells. IC50 or ED50 (drug concentration causing 50% inhibition) was calculated from the plotted data.
A general note: In SRB staining, fixed cells bind dye roughly in proportion to their protein.

For the compound `COc1ccc(/C=C\c2cc(I)c(OC)c(OC)c2)cc1O` [Compound 14a, 3-Iodo-4,4′,5-trimethoxy-3′-hydroxy-z-stilbene], the GI50 in the assay on Breast MCF-7 came out at 0.22 ng/mL (≈ 0.534 nM); with CNS SF268, 0.35 ng/mL (≈ 0.849 nM); in the assay on Colon KM20L2 it was 150 ng/mL (≈ 364 nM); with Lung-NSC NCI-H460, 0.19 ng/mL (≈ 0.461 nM); in the assay on Pancreas BXPC-3, 110 ng/mL (≈ 267 nM); in the assay on Prostate DU-145, 0.52 ng/mL (≈ 1.26 nM). In addition, in assay [1] (Homo sapiens, Table V, read-out: Human Umbilical Vein Endothelial Cell (HUVEC) Inhibition Values (GI50)), the GI50 is 0.04 ng/mL (≈ 0.097 nM). The “Relative % Growth” value amounted to 90% in assay [1] (0.00001 μg/ml), 18% in assay [1] (0.0001 μg/ml), 14% in assay [1] (0.001 μg/ml) and 14% in assay [1] (0.01 μg/ml).
